Results on 4 compounds are retold here after patent US11078246B2, “Peptides binding to Bfl-1” (Dana-Farber Cancer Institute, Inc., priority 2015, dated 2021).

Experiment [1] addresses T1, Bfl-1 (Homo sapiens, UniProt Q16548).
T1 sequence (Q16548 1-175): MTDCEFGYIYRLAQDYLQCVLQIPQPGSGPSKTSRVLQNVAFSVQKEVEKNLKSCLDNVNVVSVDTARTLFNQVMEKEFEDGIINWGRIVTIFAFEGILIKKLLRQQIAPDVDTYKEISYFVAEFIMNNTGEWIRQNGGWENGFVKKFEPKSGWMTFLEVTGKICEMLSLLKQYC
Put plainly: Bfl-1:Warhead SAHB conjugation assay. It is filed as binding. To be noted: conjugation with Bfl-1. The method, then: Proteins were serially diluted from 1 μM, then combined with FITC-labeled SAHB and polarization measured at 5 min on a microplate reader. We then calculated dissociation constants (KD) by nonlinear regression analysis of dose-response curves. […] Samples were then combined with loading dye, run on a 12% Bis-Tris SDS-PAGE, and stained with Coomassie. The same setup was used for all antiapoptotic proteins tested.

Experiment [2] addresses T1, Bfl-1. In words: Competitive binding assay after pre-forming the Bfl-1:NOXA disulfide bond. To be noted: Bfl-1:NOXA disulfide bond pre-formed. The method, then:
The functional impact of the Bfl-1:NOXA disulfide bond formation was evaluated using competitive binding assays and liposomal release assays.

In a further experiment the target is T2, BFL-1ΔC (Homo sapiens, UniProt Q16548).
T2 construct: cDNA encoding BFL-1ΔC (aa 1-153) was cloned into the pET19b expression vector; made in house; host or cells: Escherichia coli BL21(DE3) LOBSTR
T2 sequence (Q16548 1-153): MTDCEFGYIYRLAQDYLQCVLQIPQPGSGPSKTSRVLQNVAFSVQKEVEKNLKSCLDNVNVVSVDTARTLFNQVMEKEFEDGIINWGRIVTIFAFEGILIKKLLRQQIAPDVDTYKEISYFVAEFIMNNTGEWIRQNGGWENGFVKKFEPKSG
In words: In vitro covalent conjugation assay (DTT reduction, GSSG oxidation). Particulars: DTT 10 mM then GSSG 12 mM; Coomassie, FITC scan. It is filed as binding. The method, then: Biolayer Interferometry: Binding analyses of NOXA peptide interactions with BFL-1ΔC were performed on an Octet RED384 system (Fortebio, Menlo Park, Calif.) at 30° C. Super streptavidin (SSA) tips were prewetted in 1× kinetics buffer (PBS, pH 7.4, 0.01% BSA, 0.002% Tween-20) and then conjugated to NOXA SAHBs bearing an N-terminal biotin-PEG linker (10 μg/mL). Excess streptavidin was quenched by incubation with 2 μg/mL biocytin. The tips were then washed with kinetics buffer and soaked in a serial dilution of BFL-IAC for 10 min to measure association rate, followed by a 15 min incubation in kinetics buffer to measure dissociation rate. Dissociation constants were calculated using Octet Data Analysis version 9.0. […] After this incubation in a reducing environment, the mixture was diluted 5-fold into 50 mM Tris pH 8.0, 100 mM NaCl, 12 mM GSSG and incubated in the dark for an additional 30 min at RT. […] The gel was rinsed with water, subjected to FITC scan (Typhoon FLA 9500, GE Healthcare) and then Coomassie staining.

Positions of bridges follow the written chain, without caps; N, C: chain ends. Non-standard residues stand in square brackets, D forms with d. No end group written: not given here. S5 = C=CCCC[C@](C)(N)C(=O)O

In the case of `O=C(O)[C@H]1CCCCN1` [D-homoproline], the “covalent binding efficiency (comparative)” value (from here on “covalent binding efficiency”) on Bfl-1 [1] was “less efficient”.

`O=C(O)[C@@H]1CCCCN1` [L-homoproline]: on Bfl-1 [1], the “covalent binding efficiency” value is recorded as “less efficient”.

Consider `CN(C)C/C=C/C(=O)O` [trans-4-dimethylaminocrotonic acid], for which, at Bfl-1 [1], the “covalent binding efficiency” value is “less efficient”.

For “NOXA SAHBA C25S: stapled NOXA BH3 peptide with C25S substitution; SEQ ID NO:13 (AELEVESATQLR[S5]FGD[S5]LNFRQKLL; staple 13-17)”, in the experiment with Bfl-1 [2], the “availability of the Bfl-1 binding pocket to another FITC BH3 domain” value was “abrogated these inhibitory effects”. Also, the “molecular weight shift (disulfide adduct) of wild-type BFL-1ΔC” value in the experiment with BFL-1ΔC is “not”.
